Target: T1, luciferase (Photinus pyralis, UniProt P08659)
T1 construct: purchased Analytical Luminescent Laboratories (ALL), Sparks, Md. #2005
Assay: luciferin-luciferase chemiluminescent reaction with reactant mixture dried on reagent disc
Format: biochemical
From the text: As discussed above, the inherent chemical and mechanical stability of the polymeric material is ideally suited for use as a medium on which to load the chemiluminescent reagents for the practice of the present invention. A number of commercial enterprises market luciferin-luciferase reagent kits for use in chemiluminescent reaction assays. One that the inventors have found to be particularly well suited for the practice of the present invention is the “Firelight®” luciferin-luciferase reagent kit provided by Analytical Luminescent Laboratories (ALL) of Sparks, Md. […] This provides for a greater intensity of luminescence, and faster reaction kinetics.
In the preparation of the reagent discs 48, the reactant concentrate is loaded, preferably drop-wise, onto the Merocel® CF50, obtained in pre-sterilized sheets. The coated sheets are then dried at ambient temperatures under a vacuum, and the reagent discs are cut from the sheets in an appropriate size and shape. Alternatively, discs may be cut first and then loaded with appropriate reagent solution. When loaded in such fashion with the reagent mixture, reagent discs, approximately 6 mm in diameter and approximately 1.5 mm in height, carry approximately 0.5 mg of the dried reactant mixture.
It is recognized in the prior art that trehalose will stabilize delicate materials while they are freeze-dried. […]

T1 sequence (P08659 whole entry): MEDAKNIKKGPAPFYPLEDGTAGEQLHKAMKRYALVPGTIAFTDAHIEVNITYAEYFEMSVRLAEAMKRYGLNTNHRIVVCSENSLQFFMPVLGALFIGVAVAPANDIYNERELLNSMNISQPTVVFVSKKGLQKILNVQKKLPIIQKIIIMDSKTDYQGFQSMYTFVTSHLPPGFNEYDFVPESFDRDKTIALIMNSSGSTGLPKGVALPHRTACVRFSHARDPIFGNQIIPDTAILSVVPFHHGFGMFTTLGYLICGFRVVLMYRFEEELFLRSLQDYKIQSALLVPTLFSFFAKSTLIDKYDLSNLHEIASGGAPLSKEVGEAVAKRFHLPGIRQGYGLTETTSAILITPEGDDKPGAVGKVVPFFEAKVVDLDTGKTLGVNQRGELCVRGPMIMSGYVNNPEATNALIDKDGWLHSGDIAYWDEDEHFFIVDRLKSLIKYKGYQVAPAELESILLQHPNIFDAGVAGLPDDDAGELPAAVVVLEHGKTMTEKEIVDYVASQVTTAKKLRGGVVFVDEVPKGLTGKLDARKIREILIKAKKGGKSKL

For `OC[C@H]1O[C@H](O[C@H]2O[C@H](CO)[C@@H](O)[C@H](O)[C@H]2O)[C@H](O)[C@@H](O)[C@@H]1O` [trehalose, a-D-glucopyranosyl-a-D-glucopyranoside], the “observed luminescent intensities versus the same loading of reagents without the trehalose” value (6 mm×1.5 mm reagent disc, total loading approximately 4 mg, FIG. 12) was “more than twice” and the “biochemical activity of the luciferase component of the reagent mixture” value (trehalose added to loading solution at levels approaching its saturation solubility) was “up to a doubling, or more”.

Reference: patent US6541194B2, “Method for the detection of the presence of chemical species known to inhibit a chemiluminescent reaction” (Neogen Corporation, priority 2000, dated 2003)
